These results are taken from PMC12274739, “Differential substrate degradation by super-degron: EGFP in wild-type mouse cells, PD-1 requires CRBN humanization” (iScience, 2025).

Assay [1] deals with wild-type mESCs. Briefly: Proteome assay in wild-type mESCs with IBR. Format: cell-based, mouse. From the text: Only SD was able to efficiently degrade EGFP even in the wild-type mouse cell lines. IKZF1/3 and several neo-substrates for CRBN were degraded in human cells but not in mouse cells, most likely because of the different amino acids in CRBN. However, the combination of SD and IBR or MZG degraded target proteins in both mouse and human cells. […] These 17 proteins are suspected to be novel substrates (data not shown). […] Moreover, general thalidomide analogs and CRBN have no neo-substrates in mouse cell lines.[25]

In assay [2] the test system is mouse PD-1-mCherry-IKZF full-length tag. To be noted: Jurkat, 24 h.

“And” between values parts separate entries of the source, which are not always exact repeats. Equal values may be shown once.

With `O=C1CC[C@H](N2Cc3c(OCc4ccc(CN5CCOCC5)cc4)cccc3C2=O)C(=O)N1` [IBR, iberdomide], in assay [1] (exogenously expressed in mESCs), the “downregulation of 11 EGFP-bound candidate proteins” value was “none of them were downregulated by IBR”. Further, the “number of proteins with reduced expression” value in assay [1] (wild-type mESCs, proteome assay, data not shown) is listed as 17.
Turning to `Nc1cccc2c1C(=O)N(C1CCC(=O)NC1=O)C2=O` (stereo not shown) [POM, pomalidomide], in assay [2] (mCherry, no reagent = 1), the “Bottom, mCherry (mC)” value was 0.6165. For the same compound, the “Bottom, PD-1 (FITC)” value in assay [2] (surface PD-1, no reagent = 1) was 0.32 and 0.3218.
